Data taken from patent US20260109721A1, “IONIZABLE CATIONIC LIPIDS INCORPORATING SILICON: SYNTHESIS AND LNP FORMULATION” (priority 2023, published 2026).

Experiments:
HeLa cells = experiment: Transfection efficiency with GFP mRNA (Method B); type: cell-based; conditions: 24 h, GFP fluorescence
Method: The synthesized lipids were tested in term of in vitro transfection efficacy and toxicity on HeLa cells. In order to perform the mentioned biological tests, appropriate LNPs had to be formulated from the synthesized lipids. The formulation technique was different in Method A and B. The particle size, polydispersity index (PDI) and zeta potential of resulting LNPs were determined by means of Dynamic Light Scattering technique (DLS). Prior to biological testing the encapsulation efficiency (EE) of the loaded LNPs was determined by using RiboGreen RNA assay. In case of Method A Luc mRNA while in case of Method B GFP mRNA was transfected into the cells. In parallel with the transfection experiments, toxicity of the investigated LNPs was determined, in case of Method A resazurin assay while in case of Method B MTT assay was used. Additionally, the toxicity of the lipids was investigated on HepG2 cells and IC50 values were determined.
(§1) In 1.5 mL eppendorf: • a) Place 2.9 uL of 0.33 ug/uL mRNA solution into Eppendorf tube • b) Add 1.94 μL of supplied ethanolic solution of tested lipid and immediately mix by working pipette up-and-down several times (work the solution up and down several times before transferring to saturate pipette tip with ethanol vapors) • c) Incubate for 15 minutes. • d) Add 536 μL of MEM. Mix the solution by vortexing. • e) Incubate for 30 minutes.
• MEM (Sigma, cat #M5650-500 mL) • Fetal Bovine Serum, FBS (Sigma, cat #F7524-500 mL) • Solutions of the formulations (see above) • Dilutor: 10 mL MEM+0,036 mL ethanol • Phosphate buffered saline, PBS
• 1. Fill the edge wells of a 96-well plate with 100 μL media. • 2. Plate 10,000 HeLa cells per well in 96 well plate. […] Total 60 wells should be seeded. Incubate in MEM+10% FBS at 37° C. in a humidified atmosphere with 5% CO2 for 24 h. • 3. Examine under the microscope. Confluency must be at or nearly 80%. • 4. Gently remove the media (aspirate). Place 50 μL of the following formulations: • a) 6 wells with dilutor—negative control • b) 6 wells with Lipofectamine-50—positive control. • c) 6 wells with Lipofectamine-6—secondary positive control • d) 6 wells per formulations—test samples. • 5. Incubate plate for 1 hours at 37° C. • 6. Add 50 μL of MEM+20% FBS (which will become 10% upon dilution). • 7. Place plates into the incubator at 37° C. in a humidified atmosphere with 5% CO2 for 23 h (total 24 hours of incubation). • 8. After 24 h, aspirate the media without disturbing the cells. Gently wash cells with 100 μL of warm PBS. Aspirate PBS. • 9. Add 100 μL of fresh PBS into washed cells and read GFP fluorescence on the plate reader. • 10. This can be followed with viability assessment with the MTT assay. Cell Viability Assessment with MTT Assay (Method B)

[1] = LNP size and size distribution by Dynamic Light Scattering (Method B); type: physicochemical; conditions: DLS; for Size (nm): Z-average
Method: • 0.33 ug/uL mRNA solution in DEPC-treated water (RiboPro, Off-The-Shelf mRNA; eGFP with Cap 1) • 0.04 ug/uL mRNA solution in DEPC-treated water (RiboPro, Off-The-Shelf mRNA; eGFP with Cap 1)
as §1
• a) Place 45 μL Lipofectamine-50 solution into 1.5 mL sterile Eppendorf tube. • b) Add 315 μL of MEM. Vortex. • c) Incubate 15 min. Size and Size Distribution Measurements with Dynamic Light Scattering • 1. Transfer 100 μL of freshly prepared LNP formulation in DLS micro cuvette. • 2. Place the formulation into Zetasizer pre-heated to 37 C. • 3. Equilibrate the sample for 5 minutes. • 4. Perform the size measurement in triplicate (settings: position and gain auto). • 5. For QC examine correlation curve to have no disturbances. Report Z-average and PDI based on cumulants fit. Transfection Efficiency with GFP mRNA (Method B)

[2] = Apparent pKa in LNPs by TNS titration; type: physicochemical; conditions: lipid nanoparticles (LNPs)
Method: In the case of some lipids, the apparent pKa in LNPs was determined by using TNS titration based on the method described: Angew Chem Int Ed Engl. 2012, 51 (34), 8529-8533, doi: 10.1002/anie.201203263).

Row | SMILES | Transfection 89 ng mRNA/well (HeLa cells) | PDI [1] | Size (nm) [1] [nm] | pKa [2]
1 | CCCCCCCCC(CCCCCC)C(=O)OCCCCCCN(CCCCO)CCCCCCOC(=O)C(CCCCCC)CCCCCCCC (stereo not shown) [ALC-0315, reference compound] | 15892.1 | – | – | –
2 | CCCCC/C=C\C/C=C\CCCCCCCCOC(CCCCCCC/C=C\C/C=C\CCCCC)O[Si](C)(C)OCCCCCCN(CCO)CCO (stereo not shown) [Example 48, (23Z,26Z)-13-((8Z,11Z)-heptadeca-8,11-dien-1-yl)-3-(2-hydroxyethyl)-11,11-dimethyl-10,12,14-trioxa-3-aza-11-siladotriaconta-23,26-dien-1-ol] | 93448.3 | 0.128 | 180 | 7.73
3 | CCCCC/C=C\C/C=C\CCCCCCCCOC(CCCCCCC/C=C\C/C=C\CCCCC)O[Si](C)(C)OCCCCCCN(C)CCO (stereo not shown) [Example 56, (23Z,26Z)-13-((8Z,11Z)-heptadeca-8,11-dien-1-yl)-3,11,11-trimethyl-10,12,14-trioxa-3-aza-11-siladotriaconta-23,26-dien-1-ol] | 78375.2 | 0.092 | 185 | 7.21
4 | CCCCC/C=C\C/C=C\CCCCCCCCOC(CCCCCCC/C=C\C/C=C\CCCCC)O[Si](C)(C)OCCCCCCN1CCN(CCO)CC1 (stereo not shown) [Example 58, 2-(4-((20Z,23Z)-10-((8Z,11Z)-heptadeca-8,11-dien-1-yl)-8,8-dimethyl-7,9,11-trioxa-8-silanonacosa-20,23-dien-1-yl)piperazin-1-yl)ethan-1-ol] | 50019.2 | – | – | –
